Test results from ChEMBL document CHEMBL3879915, “Methods of inhibiting PRMT5” (2014).

Columns and labels:
PRMT5/MEP50 complex = PRMT5/MEP50 complex (Homo sapiens, UniProt O14744); experiment: Inhibition of recombinant human fetal brain FLAG-tagged PRMT5/full length human testis 6His-tagged MEP50 expressed in baculovirus infected insect Sf9 cells using human histone H4 (1 to 15 residues) as substrate preincubated for 30 mins followed by [3H]-SAM addition
[1] = Antiproliferative activity against human Z138 cells assessed as inhibition of cell viability after 5 days by Cell-Titer Glo assay; assay type: functional, cell-based; conditions: Z-138, 120 h
[2] = target: Protein arginine N-methyltransferase 5 (Homo sapiens, UniProt O14744); experiment: Inhibition of PRMT5 in human Z138 cells assessed as decrease in di-methyl arginine levels after 96 hrs by Western blot method; assay type: cell-based
Chain of Protein arginine N-methyltransferase 5 (O14744 whole entry): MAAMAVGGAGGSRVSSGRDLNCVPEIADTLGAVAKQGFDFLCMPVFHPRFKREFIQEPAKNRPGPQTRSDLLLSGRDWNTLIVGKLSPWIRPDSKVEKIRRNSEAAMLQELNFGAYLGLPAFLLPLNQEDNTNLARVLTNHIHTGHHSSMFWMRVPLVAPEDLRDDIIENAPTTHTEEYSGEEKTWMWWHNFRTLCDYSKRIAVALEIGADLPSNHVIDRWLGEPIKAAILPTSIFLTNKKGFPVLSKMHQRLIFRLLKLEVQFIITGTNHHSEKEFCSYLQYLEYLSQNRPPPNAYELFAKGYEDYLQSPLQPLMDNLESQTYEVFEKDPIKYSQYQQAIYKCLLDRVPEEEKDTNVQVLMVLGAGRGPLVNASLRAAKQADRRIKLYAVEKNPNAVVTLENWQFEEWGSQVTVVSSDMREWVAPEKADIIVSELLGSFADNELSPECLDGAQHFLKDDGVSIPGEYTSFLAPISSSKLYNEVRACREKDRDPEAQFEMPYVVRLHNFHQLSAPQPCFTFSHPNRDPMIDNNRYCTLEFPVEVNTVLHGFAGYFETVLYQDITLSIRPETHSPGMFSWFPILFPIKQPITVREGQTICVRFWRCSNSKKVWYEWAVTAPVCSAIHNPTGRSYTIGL

Chain of PRMT5/MEP50 complex (O14744 whole entry, the tested form may be a part): as the sequence (O14744 whole entry) above
Chain of PRMT5/MEP50 complex (Q9BQA1 whole entry, further chain, the tested form may be a part): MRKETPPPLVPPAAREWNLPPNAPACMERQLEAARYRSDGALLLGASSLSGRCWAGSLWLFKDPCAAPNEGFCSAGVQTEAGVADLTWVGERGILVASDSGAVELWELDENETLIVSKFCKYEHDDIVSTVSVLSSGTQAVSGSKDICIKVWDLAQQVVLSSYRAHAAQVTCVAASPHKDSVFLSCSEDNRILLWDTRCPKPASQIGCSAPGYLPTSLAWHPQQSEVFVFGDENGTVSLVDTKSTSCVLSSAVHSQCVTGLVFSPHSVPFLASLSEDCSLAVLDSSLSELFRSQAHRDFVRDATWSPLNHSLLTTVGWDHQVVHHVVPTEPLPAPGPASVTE

Row | Compound | IC50 (PRMT5/MEP50 complex) [µM] | EC50 [2] [µM] | EC50 [1] [µM]
1 | OC(COCC1COc2ccccc2O1)CN1CCc2ccccc2C1 (centres undefined) | 0.101 to 40 |  | > 40
2 | CC(=O)Nc1ccc(OCC(=O)NCC(O)CN2CCc3ccccc3C2)cc1 (centres undefined) | 0.101 to 1 | 0.101 to 1 | > 20
3 | CCC1c2ccccc2CCN1CC(O)COc1cccc(-c2ccc3ncn(C)c3c2)c1 (centres undefined) | 0.101 to 1 |  | > 20
4 | COc1ccccc1OCC(=O)NCC(O)CN1CCc2ccccc2C1 (centres undefined) | < 0.1 | 0.101 to 1 | 1 to 10
5 | N#Cc1ccc(OCC(=O)NCC(O)CN2CCc3ccccc3C2)cc1 (centres undefined) | 0.101 to 1 | 0.101 to 1 | 10 to 50
6 | O=C(COc1ccccc1S(=O)(=O)N1CCOCC1)NCC(O)CN1CCc2ccccc2C1 (centres undefined) | < 0.1 | 0.101 to 1 | 
7 | O=C(COc1ccccc1N1CCOCC1)NC[C@@H](O)CN1CCc2ccccc2C1 | 0.101 to 1 | 0.101 to 1 | 
8 | O=C(CNc1ccccc1)NCC(O)CN1CCc2ccccc2C1 (centres undefined) | 1 to 10 | 1 to 10 | > 20
9 | CC(C)(C)OC(=O)N1CCC(OCC(O)CN2CCc3ccccc3C2)CC1 (centres undefined) | 1 to 10 |  | > 40
10 | O=C(NCC(O)CN1Cc2ccccc2C1)c1cccc(NC2CCOCC2)c1 (centres undefined) | 0.101 to 1 | 0.101 to 1 | 
11 | N#Cc1ccccc1OCC(=O)NCC(O)CN1CCc2ccccc2C1 (centres undefined) | 0.101 to 1 | 0.101 to 1 | 10 to 50
12 | CN1CCN(c2ccccc2OCC(=O)NC[C@@H](O)CN2CCc3ccccc3C2)CC1 | 1 to 10 | 1 to 10 | 
13 | O=C(COc1cccc2cccnc12)NCC(O)CN1CCc2ccccc2C1 (centres undefined) | < 0.1 | < 0.1 | 0.101 to 1
14 | CC(C)(C)OC(=O)Nc1cccc(C(=O)NCC(O)CN2Cc3ccccc3C2)c1 (centres undefined) | 0.101 to 1 | 1 to 10 | 
15 | O=C(NC[C@@H](O)CN1CCc2ccccc2C1)Oc1ccccc1 | < 0.1 | 1 to 10 | 
16 | CS(=O)(=O)c1ccccc1OCC(=O)NCC(O)CN1Cc2ccccc2C1 (centres undefined) | 0.101 to 1 | 0.101 to 1 | 
17 | CC(C)(C)OC(=O)N1CCCC(OCC(O)CN2CCc3ccccc3C2)C1 (centres undefined) | 1 to 10 |  | > 40
18 | Cn1cnc2ccc(NCC(=O)NCC(O)CN3CCc4ccccc4C3)cc21 (centres undefined) | 0.101 to 1 | 1 to 10 | 
19 | CN(C)CCOc1ccccc1OCC(=O)NC[C@@H](O)CN1CCc2ccccc2C1 | 0.101 to 1 | 1 to 10 | 
20 | O=c1cc(-c2ccccc2)ccn1C[C@@H](O)CN1CCc2ccccc2C1 |  | > 50 | 
21 | OC(COCC1CC1)CN1CCc2ccccc2C1 (centres undefined) | 1 to 10 |  | > 40

Row | Compound | IC50 (PRMT5/MEP50 complex) [µM] | EC50 [2] [µM] | EC50 [1] [µM]
22 | OC(COCC1CCCO1)CN1CCc2ccccc2C1 (centres undefined) | 10 to 40 |  | > 40
23 | OC(COCC1CCNC1)CN1CCc2ccccc2C1 (centres undefined) | > 40 |  | > 40
24 | Cc1nn(-c2ccccc2)c(C)c1COCC(O)CN1CCc2ccccc2C1 (centres undefined) | 1 to 10 |  | > 40
25 | O=C1CN(c2ccccc2F)CCN1CC(O)CN1CCc2ccccc2C1 (centres undefined) |  | > 50 | 
26 | OC(COCc1ccc(OCc2ccccc2)cc1)CN1CCc2ccccc2C1 (centres undefined) | 1 to 10 |  | > 20
27 | Cc1cn(C)c2cccc(OCC(=O)NCC(O)CN3CCc4ccccc4C3)c12 (centres undefined) | < 0.1 | 0.101 to 1 | 
28 | Cc1ccccc1N1CCN(CC(O)CN2CCc3ccccc3C2)C(=O)C1 (centres undefined) |  | > 50 | 
29 | CN1CCC(OCC(O)CN2CCc3ccccc3C2)C1 (centres undefined) | > 40 |  | > 40
30 | OC(COc1ccc(-n2cncn2)cc1)CN1CCc2ccccc2C1 (centres undefined) | 1 to 10 |  | > 20
31 | Cn1nccc1-c1cccc(CC(=O)NCC(O)CN2CCc3ccccc3C2)c1 (centres undefined) | 0.101 to 1 | 0.101 to 1 | 
32 | CCn1ccnc1COCC(O)CN1CCc2ccccc2C1 (centres undefined) | > 40 |  | > 40
33 | Cn1ccnc1-c1ccccc1OCC(=O)NCC(O)CN1CCc2ccccc2C1 (centres undefined) | 0.101 to 1 | 1 to 10 | 
34 | O=C(c1ccc(Cn2ccc(-c3ccc(OCC(O)CN4CCc5ccccc5C4)cc3)n2)cc1)N1CCCC1 (centres undefined) | 1 to 10 |  | 10 to 40
35 | O=C(COc1ccccc1F)NCC(O)CN1CCc2ccccc2C1 (centres undefined) | 0.101 to 1 | 0.101 to 1 | 10 to 50
36 | CC(C)(C)OC(=O)N1CC(OCC(O)CN2CCc3ccccc3C2)C1 (centres undefined) | 1 to 10 |  | > 40
37 | O=c1cc(-c2ccccc2)ccn1C[C@H](O)CN1CCc2ccccc2C1 |  | > 50 | 
38 | O=C(Cc1cccc2cccnc12)NCC(O)CN1CCc2ccccc2C1 (centres undefined) | 0.101 to 1 | 1 to 10 | 
39 | COc1ccc(OCC(=O)NCC(O)CN2CCc3ccccc3C2)cc1 (centres undefined) | 0.101 to 1 | 0.101 to 1 | 10 to 50
40 | O=C1CN(c2ccc(CO)cc2)CCN1CC(O)CN1CCc2ccccc2C1 (centres undefined) | 0.101 to 1 | 1 to 10 | 
41 | O=C1CN(c2cccc(Cl)c2)CCN1CC(O)CN1CCc2ccccc2C1 (centres undefined) | < 0.1 | 1 to 10 | 

Second part, led by results:

Row | IC50 (PRMT5/MEP50 complex) [µM] | EC50 [2] [µM] | Compound | EC50 [1] [µM]
42 | 10 to 40 |  | OC(COCc1ccccc1)CN1CCc2ccccc2C1 (centres undefined) | > 40
43 | 1 to 10 |  | OC(COc1ccc2c(c1)OCO2)CN1CCc2ccccc2C1 (centres undefined) | > 20
44 | 1 to 10 |  | OC(COc1ccc(C2CCNCC2)cc1)CN1CCc2ccccc2C1 (centres undefined) | 10 to 40
45 | 0.101 to 1 |  | OC(COc1cccc(CNC2CCCC2)c1)CN1CCc2ccccc2C1 (centres undefined) | 10 to 40
46 | 0.101 to 1 | 0.101 to 1 | CCN(c1cccc(C(=O)NCC(O)CN2CCc3ccccc3C2)c1)C1CCOCC1 (centres undefined) | 
47 | > 40 |  | CN1CCCCC1COCC(O)CN1CCc2ccccc2C1 (centres undefined) | > 40
48 | < 0.1 | 0.101 to 1 | COc1cccc(OCC(=O)NCC(O)CN2CCc3ccccc3C2)c1 (centres undefined) | 1 to 10
49 | < 0.1 | 0.101 to 1 | CC(Oc1ccccc1)C(=O)NCC(O)CN1CCc2ccccc2C1 (centres undefined) | 1 to 10
50 | 0.101 to 1 | 0.101 to 1 | O=C(COc1ccccc1)NCC(O)CN1CCc2ccccc2C1 (centres undefined) | 
51 | 1 to 10 |  | OC(COCC1CCCCC1)CN1CCc2ccccc2C1 (centres undefined) | > 40
52 |  | 0.101 to 1 | Cn1cnc2ccc(OCC(=O)NCC(O)CN3CCc4ccccc4C3)cc21 (centres undefined) | 10 to 50
53 | 1 to 10 |  | OC(COc1cccc(CNC2CCCC2)c1)CN1Cc2ccccc2C1 (centres undefined) | 10 to 50
54 | > 40 |  | CN1CCC(OCC(O)CN2CCc3ccccc3C2)CC1 (centres undefined) | > 40
55 | 10 to 40 |  | COc1cccc2c1CN(CC(O)COc1cccc(CNC3CCCC3)c1)CC2 (centres undefined) | 10 to 40
56 | 0.101 to 1 | 1 to 10 | N#CCc1cccc(-c2cccc(OCC(O)CN3CCc4ccccc4C3)c2)c1 (centres undefined) | 
57 | 10 to 40 |  | CC(OCC(O)CN1CCc2ccccc2C1)c1cccnc1 (centres undefined) | > 40
58 | 0.101 to 1 | > 20 | COc1cc(Cl)cc(-c2cccc(OCC(O)CN3CCc4ccccc4C3)c2)c1 (centres undefined) | 
59 | 1 to 10 |  | OC(COC1Cc2ccccc2C1)CN1CCc2ccccc2C1 (centres undefined) | > 40
60 | 0.101 to 1 | 0.101 to 1 | Cc1ccccc1OCC(=O)NCC(O)CN1CCc2ccccc2C1 (centres undefined) | 1 to 10
61 | 0.101 to 1 | 0.101 to 1 | O=C(COc1cccc(F)c1)NCC(O)CN1CCc2ccccc2C1 (centres undefined) | 10 to 50
62 | 1 to 10 |  | O[C@@H](COc1cccc(CNC2CCCC2)c1)CN1CCc2ccccc2C1 | 10 to 40
63 | 1 to 10 |  | COc1cccc(COCC(O)CN2CCc3ccccc3C2)c1 (centres undefined) | > 40
64 | 1 to 10 |  | O=S1(=O)CCN(c2ccc(OCC(O)CN3CCc4ccccc4C3)cc2)CC1 (centres undefined) | > 20

Row | IC50 (PRMT5/MEP50 complex) [µM] | EC50 [2] [µM] | Compound | EC50 [1] [µM]
65 | 1 to 10 |  | OC(COC1CCCCCC1)CN1CCc2ccccc2C1 (centres undefined) | > 40
66 | < 0.1 | 0.101 to 1 | O=C(NCC(O)CN1CCc2ccccc2C1)c1cccc(NC2CCOC2)c1 (centres undefined) | 
67 | 0.101 to 1 |  | O[C@H](COc1cccc(CNC2CCCC2)c1)CN1CCc2ccccc2C1 | 10 to 40
68 | 1 to 10 |  | CN(Cc1ccc(OCC(O)CN2CCc3ccccc3C2)cc1)C1CCCC1 (centres undefined) | > 40
69 | < 0.1 |  | O=C(NC[C@H](O)CN1CCc2ccccc2C1)c1cccc(NC2CCOCC2)c1 | 0.101 to 1
70 | 0.101 to 1 |  | CCCCNCc1cccc(COCC(O)CN2CCc3ccccc3C2)c1 (centres undefined) | > 20
71 | 0.101 to 1 | 1 to 10 | OC(COc1cccc(-c2ccccc2F)c1)CN1CCc2ccccc2C1 (centres undefined) | 
72 | > 40 |  | OC(COC1CCNCC1)CN1CCc2ccccc2C1 (centres undefined) | > 40
73 | 1 to 10 | 1 to 10 | O=C(Nc1cccc(OCC(O)CN2CCc3ccccc3C2)c1)c1cccnn1 (centres undefined) | 
74 | 1 to 10 |  | CC(C(O)COc1cccc(CNC2CCCC2)c1)N1CCc2ccccc2C1 (centres undefined) | > 40
75 | 1 to 10 | 1 to 10 | O=C(Nc1cccc(OCC(O)CN2CCc3ccccc3C2)c1)c1cccnc1 (centres undefined) | 
76 | > 40 |  | OC(COCC1CCCCO1)CN1CCc2ccccc2C1 (centres undefined) | > 40
77 | 10 to 40 |  | CC(C)n1nccc1-c1ccc(OCC(O)CN2CCc3ccccc3C2)cc1 (centres undefined) | > 40
78 | 1 to 10 |  | CC(C)n1ccc(-c2ccc(OCC(O)CN3CCc4ccccc4C3)cc2)n1 (centres undefined) | > 40
79 | 0.101 to 1 | 0.101 to 1 | O=C(NCC(O)CN1CCc2ccccc2C1)c1cccc(OC2CCOCC2)c1 (centres undefined) | 
80 | 1 to 10 |  | OC(COCc1c(Cl)cccc1Cl)CN1CCc2ccccc2C1 (centres undefined) | 10 to 40
81 | 0.101 to 1 | > 20 | Cn1cc2ccc(-c3cccc(OCC(O)CN4CCc5ccccc5C4)c3)cc2n1 (centres undefined) | 
82 | > 40 |  | OC(COC1CCCNC1)CN1CCc2ccccc2C1 (centres undefined) | > 40
83 | 1 to 10 |  | OC(COC1CCN(Cc2ccccc2)CC1)CN1CCc2ccccc2C1 (centres undefined) | > 40
84 | 0.101 to 1 | 0.101 to 1 | N#Cc1cccc(OCC(=O)NCC(O)CN2CCc3ccccc3C2)c1 (centres undefined) | 10 to 50
85 | 0.101 to 1 | 10 to 50 | Cc1ccc(OCC(=O)NCC(O)CN2CCc3ccccc3C2)cc1 (centres undefined) | 10 to 50
86 | > 40 |  | COc1cc2c(cc1OC)CN(CC(O)COc1cccc(CNC3CCCC3)c1)CC2 (centres undefined) | 10 to 40
87 | 10 to 40 |  | OC(COC1CCOCC1)CN1CCc2ccccc2C1 (centres undefined) | > 40
